Laboratory results published in patent US20240132431A1, “METHOD FOR ALKYLATING ACIDIC FUNCTIONAL GROUP” (Chugai Seiyaku Kabushiki Kaisha, priority 2021, published 2024).
Blank lines part the entries; values can stand above or below the compound they belong to.

Target: T1, Bcl-2 protein (Recombinant Human Bcl-2 Protein) (Homo sapiens, UniProt P10415)
T1 construct: purchased Novus NBP2-34889
Assay: Binding evaluation of mixture library compounds to Bcl-2 using AS-MS (affinity selection mass spectrometry)
Conditions: for ASMS ratio (%) n = 1: replicate n = 1; for ASMS ratio (%) n = 1 / ASMS ratio (%) n = 2: ASMS Ratio(%)=(A−C)/B×100; for ASMS ratio (%) n = 2: replicate n = 2
Summary of the method: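 Pooled library of ~1200 compounds ([…] each, final) incubated with recombinant human Bcl-2 (20 μM final) in Tris-HCl pH 7.4, NaCl, Tween-20, DTT buffer, dark, 23° C., 1 h. Bound fraction recovered by SEC spin column, organic extraction, reversed-phase LC/MS. ASMS Ratio (%) = (A−C)/B×100 versus protein-free standard and SEC blank.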

[1] = AS-MS on the mixture of 1200 library compounds
[2] = AS-MS, mixture of 1200 compounds, Bcl-2

T1 sequence (P10415 whole entry): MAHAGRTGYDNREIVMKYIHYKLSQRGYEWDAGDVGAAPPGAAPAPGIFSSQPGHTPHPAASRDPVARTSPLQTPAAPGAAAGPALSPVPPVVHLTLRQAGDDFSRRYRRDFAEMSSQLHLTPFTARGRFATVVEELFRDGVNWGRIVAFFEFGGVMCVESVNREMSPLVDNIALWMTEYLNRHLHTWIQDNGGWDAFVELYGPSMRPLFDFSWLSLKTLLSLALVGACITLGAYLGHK

Compound: CCOc1cccc(-c2cc(CN3CCN(c4ccc(C(=O)NS(=O)(=O)CC56CC7CC(CC(C7)C5)C6)nn4)CC3)cc(OCC)c2)c1 [B2A081-01, N-(1-Adamantylmethylsulfonyl)-6-[4-[[3-ethoxy-5-(3-ethoxyphenyl)phenyl]methyl]piperazin-1-yl]pyridazine-3-carboxamide]
ASMS ratio (%) n = 1 (AS-MS, mixture library, Bcl-2): 18.6% | ASMS ratio (%) n = 2 (AS-MS, mixture library, Bcl-2): 16.7%

Compound: CCOc1cccc(-c2ccc(CN3CCN(c4ccc(C(=O)NS(=O)(=O)CC56CC7CC(CC(C7)C5)C6)cc4)CC3)c(OC)c2)c1 [B2A053-01, N-(1-Adamantylmethylsulfonyl)-4-[4-[[4-(3-ethoxyphenyl)-2-methoxyphenyl]methyl]piperazin-1-yl]benzamide]
ASMS ratio (%) n = 1 (AS-MS, mixture library, Bcl-2): 0.0% | ASMS ratio (%) n = 2 (AS-MS, mixture library, Bcl-2): 0.0%

Compound: 4-[4-[4-(3-Ethoxyphenyl)-3-methylbenzoyl]piperazin-1-yl]-N-propylbenzamide [B1M038-01]
ASMS ratio (%) n = 1 [2]: 0.0% | ASMS ratio (%) n = 2 [2]: 1.7%

Compound: CCOc1cncc(-c2cnn(-c3cc(C(=O)N4CCN(c5ccc(C(=O)N(C)CC67CC8CC(CC(C8)C6)C7)nn5)CC4)cc(C(F)(F)F)c3)c2)c1 [B3A022-01, N-(1-Adamantylmethyl)-6-[4-[3-[4-(5-ethoxypyridin-3-yl)pyrazol-1-yl]-5-(trifluoromethyl)benzoyl]piperazin-1-yl]-N-methylpyridazine-3-carboxamide]
ASMS ratio (%) n = 1 [1]: 4.9% | ASMS ratio (%) n = 2 [1]: 7.2%

Compound: CCOc1cccc(-c2cc(C(=O)N3CCN(c4ccc(C(=O)Nc5ccc(OC)cc5)cc4)CC3)cc(C(C)(C)C)c2)c1 [B1O037-01, 4-[4-[3-tert-Butyl-5-(3-ethoxyphenyl)benzoyl]piperazin-1-yl]-N-(4-methoxyphenyl)benzamide]
ASMS ratio (%) n = 1 [1]: 4.7% | ASMS ratio (%) n = 2 [1]: −1.7%

Compound: CCOc1cccc(-c2ccccc2CCC(=O)N2CCN(c3ccc(C(=O)NS(=O)(=O)CC45CC6CC(CC(C6)C4)C5)cc3)CC2)c1 [B2A033-01, N-(1-Adamantylmethylsulfonyl)-4-[4-[3-[2-(3-ethoxyphenyl)phenyl]propanoyl]piperazin-1-yl]benzamide]
ASMS ratio (%) n = 1 (AS-MS, mixture library, Bcl-2): 1.7% | ASMS ratio (%) n = 2 (AS-MS, mixture library, Bcl-2): −4.5%

Compound: CCOc1cncc(-c2ccccc2CN2CCN(c3ccc(C(=O)NS(=O)(=O)CC45CC6CC(CC(C6)C4)C5)nn3)CC2)c1 [B2A072-01]
ASMS ratio (%) n = 1 (AS-MS, mixture library, Bcl-2): 12.2% | ASMS ratio (%) n = 2 (AS-MS, mixture library, Bcl-2): 14.7%

Compound: 6-[4-[5-[2-(5-Ethoxypyridin-3-yl)ethynyl]pyridine-3-carbonyl]piperazin-1-yl]-N-propylpyridazine-3-carboxamide [B1M056-01]
ASMS ratio (%) n = 1 [2]: 0.5% | ASMS ratio (%) n = 2 [2]: 0.0%

Compound: CCOc1cccc(-c2cc(CN3CCN(c4ccc(C(=O)NCC(F)(F)F)cc4)CC3)cc(OCC)c2)c1 [B1K055-01, 4-[4-[[3-Ethoxy-5-(3-ethoxyphenyl)phenyl]methyl]piperazin-1-yl]-N-(2,2,2-trifluoroethyl)benzamide]
ASMS ratio (%) n = 1 [2]: −0.8% | ASMS ratio (%) n = 2 [2]: 0.0%

Compound: CCOc1cncc(-c2cc(CN3CCN(c4ccc(C(=O)Nc5ccc(OC)cc5)cc4)CC3)cc(OC(F)(F)F)c2)c1 [B1O064-01, 4-[4-[[3-(5-Ethoxypyridin-3-yl)-5-(trifluoromethoxy)phenyl]methyl]piperazin-1-yl]-N-(4-methoxyphenyl)benzamide]
ASMS ratio (%) n = 1 [1]: 0.7% | ASMS ratio (%) n = 2 [1]: −4.0%

Compound: 6-[4-[[4-(3-Ethoxyphenyl)naphthalen-1-yl]methyl]piperazin-1-yl]-N-propylpyridazine-3-carboxamide [B1M045-01]
ASMS ratio (%) n = 1 [2]: 2.5% | ASMS ratio (%) n = 2 [2]: −2.3%

Compound: CCOc1cccc(-c2ccc(CN3CCN(c4ccc(C(=O)NS(=O)(=O)C(C)(C)C)nn4)CC3)cc2C)c1 [B2L073-01, N-tert-Butylsulfonyl-6-[4-[[4-(3-ethoxyphenyl)-3-methylphenyl]methyl]piperazin-1-yl]pyridazine-3-carboxamide]
ASMS ratio (%) (n = 1): 0.0% | ASMS ratio (%) (n = 2): 0.0%

Compound: CCOc1cccc(-c2ccc(C(=O)N3CCN(c4ccc(C(=O)Nc5ccc(OC)cc5)nn4)CC3)c3ccccc23)c1 [B1O013-01, 6-[4-[4-(3-Ethoxyphenyl)naphthalene-1-carbonyl]piperazin-1-yl]-N-(4-methoxyphenyl)pyridazine-3-carboxamide]
ASMS ratio (%) n = 1 [1]: 2.2% | ASMS ratio (%) n = 2 [1]: −4.0%

Compound: CCOc1cncc(-c2ccc(CN3CCN(c4ccc(C(=O)Nc5ccc(OC)cc5)cc4)CC3)c(CC)c2)c1 [B1O050-01]
ASMS ratio (%) n = 1 [1]: 10.3% | ASMS ratio (%) n = 2 [1]: −5.8%

Compound: CCOc1cccc(-c2ccc(CN3CCN(c4ccc(C(=O)NS(C)(=O)=O)cc4)CC3)c3ccccc23)c1 [B2I065-01, 4-[4-[[4-(3-Ethoxyphenyl)naphthalen-1-yl]methyl]piperazin-1-yl]-N-methylsulfonylbenzamide]
ASMS ratio (%) (n = 1): 0.0% | ASMS ratio (%) (n = 2): 0.0%

Compound: CCOc1cncc(-c2cc(CN3CCN(c4ccc(C(=O)NCC(F)(F)F)nn4)CC3)cc(OC(F)(F)F)c2)c1 [B1K090-01, 6-[4-[[3-(5-Ethoxypyridin-3-yl)-5-(trifluoromethoxy)phenyl]methyl]piperazin-1-yl]-N-(2,2,2-trifluoroethyl)pyridazine-3-carboxamide]
ASMS ratio (%) n = 1 [2]: −0.6% | ASMS ratio (%) n = 2 [2]: −1.9%

Other lines, results leading:

ASMS ratio (%) n = 1 [1]: −0.2% | ASMS ratio (%) n = 2 [1]: −1.2%
Compound: CCOc1cncc(C#Cc2cc(C(=O)N3CCN(c4ccc(C(=O)N(C)CC56CC7CC(CC(C7)C5)C6)cc4)CC3)cc(C(F)(F)F)c2)c1 [B3A042-01, N-(1-Adamantylmethyl)-4-[4-[3-[2-(5-ethoxypyridin-3-yl)ethynyl]-5-(trifluoromethyl)benzoyl]piperazin-1-yl]-N-methylbenzamide]

ASMS ratio (%) (n = 1): −1.8% | ASMS ratio (%) (n = 2): −1.5%
Compound: CCOc1cccc(C#Cc2ccccc2CN2CCN(c3ccc(C(=O)NS(=O)(=O)CCC(F)(F)F)cc3)CC2)c1 [B2N069-01, 4-[4-[[2-[2-(3-Ethoxyphenyl)ethynyl]phenyl]methyl]piperazin-1-yl]-N-(3,3,3-trifluoropropylsulfonyl)benzamide]

ASMS ratio (%) n = 1 [1]: 0.0% | ASMS ratio (%) n = 2 [1]: 0.0%
Compound: CCOc1cccc(C#Cc2ccccc2C(=O)N2CCN(c3ccc(C(=O)Nc4ccc(OC)cc4)cc3)CC2)c1 [B1O029-01, 4-[4-[2-[2-(3-Ethoxyphenyl)ethynyl]benzoyl]piperazin-1-yl]-N-(4-methoxyphenyl)benzamide]

ASMS ratio (%) n = 1 (AS-MS, mixture library, Bcl-2): 10.2% | ASMS ratio (%) n = 2 (AS-MS, mixture library, Bcl-2): 11.4%
Compound: CCOc1cncc(-c2ccccc2CN2CCN(c3ccc(C(=O)NS(=O)(=O)c4ccc(NCCSc5ccccc5)c([N+](=O)[O-])c4)nn3)CC2)c1 [B2Q072-01, 6-[4-[[2-(5-Ethoxypyridin-3-yl)phenyl]methyl]piperazin-1-yl]-N-[3-nitro-4-(2-phenylsulfanylethylamino)phenyl]sulfonylpyridazine-3-carboxamide]

ASMS ratio (%) n = 1 [1]: 4.9% | ASMS ratio (%) n = 2 [1]: 0.4%
Compound: CCOc1cncc(-c2ccc(C(=O)N3CCN(c4ccc(C(=O)Nc5ccc(OC)cc5)cc4)CC3)cc2F)c1 [B1O028-01, 4-[4-[4-(5-Ethoxypyridin-3-yl)-3-fluorobenzoyl]piperazin-1-yl]-N-(4-methoxyphenyl)benzamide]

ASMS ratio (%) (n = 1): 0.0% | ASMS ratio (%) (n = 2): 0.0%
Compound: CCOc1cncc(-c2ccc(C(=O)N3CCN(c4ccc(C(=O)NS(=O)(=O)C(C)(C)C)cc4)CC3)cc2C)c1 [B2L026-01, N-tert-Butylsulfonyl-4-[4-[4-(5-ethoxypyridin-3-yl)-3-methylbenzoyl]piperazin-1-yl]benzamide]

ASMS ratio (%) (n = 1): 4.6% | ASMS ratio (%) (n = 2): −11.1%
Compound: CCOc1cccc(-c2cc(CN3CCN(c4ccc(C(=O)NS(=O)(=O)C(C)(C)C)cc4)CC3)cc(C(F)(F)F)c2)c1 [B2L061-01, N-tert-Butylsulfonyl-4-[4-[[3-(3-ethoxyphenyl)-5-(trifluoromethyl)phenyl]methyl]piperazin-1-yl]benzamide]

ASMS ratio (%) (n = 1): 18.8% | ASMS ratio (%) (n = 2): 11.9%
Compound: CCOc1cncc(-c2csc(CN3CCN(c4ccc(C(=O)NS(=O)(=O)c5ccc(NCCSc6ccccc6)c(C(F)(F)F)c5)nn4)CC3)c2)c1 [B2R094-01, 6-[4-[[4-(5-Ethoxypyridin-3-yl)thiophen-2-yl]methyl]piperazin-1-yl]-N-[4-(2-phenylsulfanylethylamino)-3-(trifluoromethyl)phenyl]sulfonylpyridazine-3-carboxamide]

ASMS ratio (%) n = 1 (AS-MS, mixture library, Bcl-2): 10.4% | ASMS ratio (%) n = 2 (AS-MS, mixture library, Bcl-2): 4.8%
Compound: CCOc1cncc(-c2ccc(CN3CCN(c4ccc(C(=O)NS(=O)(=O)c5ccc(NCCSc6ccccc6)c([N+](=O)[O-])c5)nn4)CC3)c3ccccc23)c1 [B2Q092-01]

ASMS ratio (%) n = 1 (AS-MS, mixture library, Bcl-2): 6.1% | ASMS ratio (%) n = 2 (AS-MS, mixture library, Bcl-2): 5.6%
Compound: CCOc1cncc(C#Cc2cc(C(=O)N3CCN(c4ccc(C(=O)NS(=O)(=O)c5ccc(NCCSc6ccccc6)c([N+](=O)[O-])c5)nn4)CC3)cc(C(F)(F)F)c2)c1 [B2Q020-01, 6-[4-[3-[2-(5-Ethoxypyridin-3-yl)ethynyl]-5-(trifluoromethyl)benzoyl]piperazin-1-yl]-N-[3-nitro-4-(2-phenylsulfanylethylamino)phenyl]sulfonylpyridazine-3-carboxamide]

ASMS ratio (%) (n = 1): 3.4% | ASMS ratio (%) (n = 2): 6.0%
Compound: CCOc1cncc(C#Cc2cc(C(=O)N3CCN(c4ccc(C(=O)NS(=O)(=O)c5ccc(NCCSc6ccccc6)c(C(F)(F)F)c5)cc4)CC3)cc(C(F)(F)F)c2)c1 [B2R042-01, 4-[4-[3-[2-(5-Ethoxypyridin-3-yl)ethynyl]-5-(trifluoromethyl)benzoyl]piperazin-1-yl]-N-[4-(2-phenylsulfanylethylamino)-3-(trifluoromethyl)phenyl]sulfonylbenzamide]
